From patent US11226337B2, “Chemoproteomic profiling of protein electrophilic and oxidative post-translational modifications” (Zenagem, LLC, priority 2017, dated 2022)

Legend:
Assay in all cases: SILAC RP-ABPP
Type in all cases: cell-based
[1] = target: T1, GLA Alphagalactosidase A (P06280) (Homo sapiens, UniProt P06280); conditions: SILAC H/L, HEK293T
T1 construct: shared by both the endogenous and recombinant forms of these proteins; endogenous in cells; host or cells: HEK293T and MDA-MB-231
In short: (§1)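 SILAC cells (HEK293T, MDA-MB-231) grown near confluence; heavy: probe 1, 3 mM, 0.5 h; light: equal 3 or probe + 10× 3. Proteomes mixed equimolar, CuAAC with 100 μM biotin-azide, 1 h RT; enrichment, LC-MS. Ratios via CIMAGE-type extraction, ≥3 peptides.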

[2] = target: T2, THBS1 Thrombospondin1 (P07996) (Homo sapiens, UniProt P07996); conditions: SILAC H/L, MDA-MB-231
T2 construct: In Situ Labelling of Cells with Hydrazine Probes for MS Experiments; endogenous in cells
T2 sequence (P07996 19-1170): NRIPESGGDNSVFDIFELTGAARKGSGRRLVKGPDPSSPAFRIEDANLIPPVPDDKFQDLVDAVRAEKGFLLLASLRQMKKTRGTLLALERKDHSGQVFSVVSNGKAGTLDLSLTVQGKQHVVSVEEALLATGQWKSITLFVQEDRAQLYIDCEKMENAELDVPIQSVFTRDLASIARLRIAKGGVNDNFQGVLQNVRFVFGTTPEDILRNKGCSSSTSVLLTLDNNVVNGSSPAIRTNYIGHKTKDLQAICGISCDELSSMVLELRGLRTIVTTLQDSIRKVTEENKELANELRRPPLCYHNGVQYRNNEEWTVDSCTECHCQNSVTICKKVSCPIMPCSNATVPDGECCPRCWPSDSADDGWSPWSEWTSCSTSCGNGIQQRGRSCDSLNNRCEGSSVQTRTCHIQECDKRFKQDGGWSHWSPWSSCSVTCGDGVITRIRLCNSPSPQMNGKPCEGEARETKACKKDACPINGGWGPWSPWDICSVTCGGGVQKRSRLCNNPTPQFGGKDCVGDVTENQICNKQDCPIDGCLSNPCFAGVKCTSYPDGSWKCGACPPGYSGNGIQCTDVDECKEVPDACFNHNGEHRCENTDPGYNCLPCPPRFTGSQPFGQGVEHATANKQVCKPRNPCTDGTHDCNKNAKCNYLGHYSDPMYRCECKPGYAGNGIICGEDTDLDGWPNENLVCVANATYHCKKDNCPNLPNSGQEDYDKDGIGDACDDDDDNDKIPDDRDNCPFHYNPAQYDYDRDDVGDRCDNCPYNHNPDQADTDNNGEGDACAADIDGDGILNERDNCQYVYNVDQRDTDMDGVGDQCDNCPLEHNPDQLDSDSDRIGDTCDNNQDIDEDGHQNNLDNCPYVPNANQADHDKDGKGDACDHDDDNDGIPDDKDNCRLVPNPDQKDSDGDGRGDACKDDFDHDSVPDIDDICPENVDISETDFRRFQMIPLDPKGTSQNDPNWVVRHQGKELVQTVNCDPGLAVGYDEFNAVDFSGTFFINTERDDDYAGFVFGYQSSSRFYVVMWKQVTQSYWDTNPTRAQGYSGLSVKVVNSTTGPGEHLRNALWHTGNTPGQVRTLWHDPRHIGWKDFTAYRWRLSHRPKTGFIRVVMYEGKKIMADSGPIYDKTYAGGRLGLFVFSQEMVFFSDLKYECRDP
In short: as §1

[3] = target: T3, CCBL2 Kynurenine oxoglutarate transaminase (Q6YP21) (Homo sapiens, UniProt Q6YP21); conditions: SILAC H/L, HEK293T
T3 construct: shared by both the endogenous and recombinant forms of these proteins; endogenous in cells; host or cells: HEK293T and MDA-MB-231
T3 sequence (Q6YP21 whole entry): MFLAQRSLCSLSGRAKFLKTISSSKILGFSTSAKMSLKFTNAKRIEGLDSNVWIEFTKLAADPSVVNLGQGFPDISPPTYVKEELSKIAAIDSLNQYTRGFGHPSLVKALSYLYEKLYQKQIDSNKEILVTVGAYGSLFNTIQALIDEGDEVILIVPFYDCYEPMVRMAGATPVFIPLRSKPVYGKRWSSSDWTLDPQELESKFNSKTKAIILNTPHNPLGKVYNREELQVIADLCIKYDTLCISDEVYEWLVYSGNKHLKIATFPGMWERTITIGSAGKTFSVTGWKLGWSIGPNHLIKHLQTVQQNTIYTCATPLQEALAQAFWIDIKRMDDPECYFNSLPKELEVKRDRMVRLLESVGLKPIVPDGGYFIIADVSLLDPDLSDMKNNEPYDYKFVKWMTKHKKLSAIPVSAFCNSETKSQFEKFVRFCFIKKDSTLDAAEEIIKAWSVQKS
In short: as §1

[4] = target: T4, ALDH9A1 4trimethylaminobutyraldehyde (P49189) (Homo sapiens, UniProt P49189); conditions: SILAC H/L, HEK293T
T4 construct: shared by both the endogenous and recombinant forms of these proteins; endogenous in cells; host or cells: HEK293T and MDA-MB-231
T4 sequence (P49189 whole entry): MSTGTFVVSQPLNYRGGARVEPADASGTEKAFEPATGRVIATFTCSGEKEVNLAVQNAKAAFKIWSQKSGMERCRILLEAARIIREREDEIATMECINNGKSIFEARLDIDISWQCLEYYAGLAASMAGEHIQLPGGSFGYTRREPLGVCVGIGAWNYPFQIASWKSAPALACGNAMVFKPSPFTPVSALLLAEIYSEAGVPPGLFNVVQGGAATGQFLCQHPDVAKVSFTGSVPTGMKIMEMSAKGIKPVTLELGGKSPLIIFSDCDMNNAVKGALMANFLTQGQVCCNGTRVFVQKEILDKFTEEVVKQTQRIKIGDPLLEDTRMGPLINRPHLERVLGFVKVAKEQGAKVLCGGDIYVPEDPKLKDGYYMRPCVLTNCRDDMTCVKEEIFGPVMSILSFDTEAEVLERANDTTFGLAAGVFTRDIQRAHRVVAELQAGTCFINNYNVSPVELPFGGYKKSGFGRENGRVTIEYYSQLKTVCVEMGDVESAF
In short: as §1

T1 sequence (P06280 32-429): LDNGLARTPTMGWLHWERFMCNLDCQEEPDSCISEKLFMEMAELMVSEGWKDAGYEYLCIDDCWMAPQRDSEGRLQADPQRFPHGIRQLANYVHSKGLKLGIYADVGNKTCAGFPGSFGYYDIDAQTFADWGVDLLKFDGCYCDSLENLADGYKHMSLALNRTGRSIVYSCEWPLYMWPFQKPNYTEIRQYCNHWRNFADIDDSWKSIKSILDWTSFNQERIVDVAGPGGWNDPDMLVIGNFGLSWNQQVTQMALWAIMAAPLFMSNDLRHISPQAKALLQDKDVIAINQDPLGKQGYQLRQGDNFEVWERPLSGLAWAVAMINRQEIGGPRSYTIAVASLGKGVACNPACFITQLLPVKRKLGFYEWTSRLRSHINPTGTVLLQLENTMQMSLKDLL

C#CCNN.Cl [probe 1, prop-2-yn-1-ylhydrazine hydrochloride]
enrichment ratioavg ([1]; probe 1 3 mM 0.5 h vs probe 3): 11 | competition ratioavg ([1]; probe 1 vs probe 1+10x probe 3): 3 | enrichment ratioavg ([2]; probe 1 3 mM 0.5 h vs probe 3): 16 | competition ratioavg ([2]; probe 1 vs probe 1+10x probe 3): 1 | enrichment ratioavg ([3]; probe 1 3 mM 0.5 h vs probe 3): 10 | competition ratioavg ([3]; probe 1 vs probe 1+10x probe 3): 4 | enrichment ratioavg ([4]; probe 1 3 mM 0.5 h vs probe 3): 12 | competition ratioavg ([4]; probe 1 vs probe 1+10x probe 3): 2
